Experimental data reported in patent US20230042830A1, “COMPOSITIONS AND METHODS FOR GENERATION OF RETINAL GANGLION CELLS FROM INDUCIBLE PLURIPOTENT STEM CELLS FOR THE TREATMENT OF PROGRESSIVE OPTIC NEUROPATHIES, INCLUDING GLAUCOMA” (THE TRUSTEES OF THE UNIVERSITY OF PENNSYLVANIA, priority 2021, published 2023).

Columns and labels:
SIRT1 pathway = conditions: mouse models of optic neuritis and optic nerve trauma; cited from earlier work
iPSC-RGC cultures = assay: Flow cytometry analysis of iPSC-RGC cultures (CD90/Thy-1, Brn-3b, RBPMS, SNCG); format: cell-based, human; conditions: flow cytometry after 35 days in vitro, three independent iPSC lines
Experimental: iPSCs were cultured on 0.1% gelatinized plates containing iMEFs in 37° C. 5% O2 and 5% CO2 conditions. Cells were maintained until approximately 75% confluence, then feeder cells were depleted and approximately 1.5×10^6 iPSCs were seeded in one well of 6-well tissue culture dish (Corning) coated with 1:100 diluted growth factor reduced Matrigel. iPSCs were maintained in iPSC: MEF-conditioned medium (80:20)+20 ng/mL of bFGF and 5 ng/ml of stable bFGF. The MEF-conditioned media was prepared by plating iMEFs onto 0.1% gelatin at a density of 20,000 cells/cm^2 in iPSC media. […] On day 16 of differentiation, seven conditions—1) L, 2) X, 3) 1.5 μM CHIR99021 (CHIR) (Wnt agonist; SelleckChem), 4) LX, 5) LSB, 6) LSB-CHIR and 7) LSBX were evaluated for RPC and RGC markers on day 23. Cultures from the following four conditions—1) LSBX, 2) LSB, 3) LX, and 4) 1.5 μM CHIR99021 (CHIR) (Wnt agonist; SelleckChem) were further evaluated at 35. An additional five conditions—1) L only, 2) X only, 3) LSB, 4) LSBX, and 5) LSB-CHIR were evaluated for RPC markers on day 23 to evaluate for transcript expression differences across different conditions in RPCs. […]

sonic hedgehog = assay: RGC induction with SHH or SAG; format: cell-based, human; conditions: 100 nM, day 22-23
Experimental: Prior to RGC differentiation, medium was changed daily using RGC induction media containing SHH (sonic hedgehog) (250 ng/mL; R&D systems) or SAG (100 nM; Tocris), SHH was replaced with SAG after establishing equal competence, FGF8 (100 ng/mL, R&D systems) for two days. For RGC differentiation (see FIGS. 1D and 2B for kinetics), on day 24, cells were manually crossed into small clusters with Leibovitz's medium containing […] Glucose using the crosshatching technique as previously described (Espuny-Camacho et al., 2013), then replated at a density of 1.0×10^5 cells/well of 6-well plate coated with 1:100 diluted growth factor reduced Matrigel in RGCs induction media containing: Follistatin 300 (100 ng/ml), cyclopamine (0.5 uM, Tocris), DAPT (3 uM, Tocris), and 4.2 μM Rock inhibitor (Y27632). Media was changed 24 h post-plating with RGC induction media containing: Follistatin 300 (100 ng/ml) and DAPT (3 uM), daily for two days. From day 27, media was changed to RGC induction media containing: DAPT (3 uM, Tocris), 10 μM Rock inhibitor (Y27632), forskolin (5 uM; SelleckChem), cAMP (400 uM; Sigma-Aldrich), BDNF (40 ng/mL; R&D systems), NT4 (5 ng/mL; R&D systems), and CNTF (10 ng/mL; R&D systems). Media was changed every 2-3 days until day 36. […]

In the case of `Oc1ccc(C=Cc2cc(O)cc(O)c2)cc1` [resveratrol], the “visual function and RGC survival” value (SIRT1 pathway) is listed as “preserves visual function and RGC survival”.

In the case of `Cc1c[nH]c(-c2cnc(NCCNc3ccc(C#N)cn3)nc2-c2ccc(Cl)cc2Cl)n1` [CHIR, CHIR99021], the “Thy-1 (CD90) positive cells” value (iPSC-RGC cultures) is reported as 22.5%.

With `CNC1CCC(N(Cc2cccc(-c3ccncc3)c2)C(=O)c2sc3ccccc3c2Cl)CC1` (stereo not drawn) [SAG] the “RGC induction compared with SHH” value (sonic hedgehog) was “no difference in RGC induction changes”.
